Assay results reported in ChEMBL document CHEMBL5154851, “Novel benzothiazole‒urea hybrids: Design, synthesis and biological activity as potent anti-bacterial agents against MRSA” (Eur J Med Chem, 2022).
In brackets after ≈: the same amount, converted by molar mass. Activity calls are given as the source filed them. No cut-off for these calls is given here.

Assays:
Staphylococcus aureus [1] = assay: Antibacterial activity against Staphylococcus aureus ATCC6538 incubated for 18 to 20 hrs by double dilution method; format: functional; details: time 18-20 hrs
Staphylococcus aureus [2] = assay: Antibacterial activity against methicillin-resistant Staphylococcus aureus ATCC2858 incubated for 18 to 20 hrs by double dilution method; format: functional; details: time 18-20 hrs
Escherichia coli = assay: Antibacterial activity against Escherichia coli incubated for 18 to 20 hrs by double dilution method; format: functional; details: time 18-20 hrs
Pseudomonas aeruginosa = assay: Antibacterial activity against Pseudomonas aeruginosa incubated for 18 to 20 hrs by double dilution method; format: functional; details: time 18-20 hrs
Candida albicans = assay: Antibacterial activity against Candida albicans ATCC10231 incubated for 18 to 20 hrs by double dilution method; format: functional; details: time 18-20 hrs
Staphylococcus aureus [3] = assay: Antibiofilm activity against methicillin-resistant Staphylococcus aureus ATCC2858 assessed as minimal biofilm eradication concentration incubated for 24 hrs by crystal violet staining based assay; format: functional
Staphylococcus aureus [4] = assay: Induction of drug resistance in methicillin-resistant Staphylococcus aureus ATCC2858 assessed as fold increase in MIC measured over 20 passage by broth dilution assay; format: functional; details: time 20.0 day
Staphylococcus aureus [5] = assay: Antibacterial activity against methicillin-resistant Staphylococcus aureus clinical isolate ATCC0101 incubated for 18 to 20 hrs by double dilution method; format: functional; details: time 18-20 hrs
Staphylococcus aureus [6] = assay: Antibacterial activity against methicillin-resistant Staphylococcus aureus clinical isolate ATCC05107 incubated for 18 to 20 hrs by double dilution method; format: functional; details: time 18-20 hrs
Staphylococcus aureus [7] = assay: Antibacterial activity against methicillin-resistant Staphylococcus aureus clinical isolate ATCC10105 incubated for 18 to 20 hrs by double dilution method; format: functional; details: time 18-20 hrs
HepG2 [8] = assay: Cytotoxicity against human HepG2 cells assessed as cell survival rate at 50 uM incubated for 24 hrs by MTT assay relative to control; format: functional
HepG2 [9] = assay: Cytotoxicity against human HepG2 cells assessed as cell survival rate at 25 uM incubated for 24 hrs by MTT assay relative to control; format: functional
Staphylococcus aureus [10] = assay: Antibacterial activity against methicillin-resistant Staphylococcus aureus ATCC2858 assessed as reduction in bacterial growth at 0.5 to 4 times of MIC measured after 4 to 8 hrs by time kill assay; format: functional, organism-based; details: time 4-8 hrs
Staphylococcus aureus [11] = assay: Antibiofilm activity against methicillin-resistant Staphylococcus aureus ATCC2858 assessed as biofilm eradication incubated for 24 hrs by crystal violet staining based assay; format: functional, organism-based; details: dose 0.049-100 µM, DDE = dose-dependent effect
Cell membrane = assay: Induction of cell membrane damage in methicillin-resistant Staphylococcus aureus ATCC2858 at 2 times of MIC measured after 4 to 12 hrs by DAPI and propidium iodide staining based confocal laser scanning microscopy analysis; details: time 4-12 hrs
Staphylococcus aureus [12] = assay: Induction of drug resistance in methicillin-resistant Staphylococcus aureus ATCC2858 assessed as fold increase in MIC measured after 19 passage by broth dilution assay; format: functional; details: time 19.0 day
[13] = Toxicity in overnight fasted ICR mouse assessed as change in appearance at 200 mg/kg, IG measured for 7 days; format: organism-based; details: in vivo, po, 168 h, time 7 day
[14] = Toxicity in overnight fasted ICR mouse assessed as change in activity at 200 mg/kg, IG measured for 7 days; format: organism-based; details: in vivo, po, 168 h, time 7 day
[15] = Toxicity in overnight fasted ICR mouse assessed as change in body weight at 200 mg/kg, IG measured for 7 days; format: organism-based; details: in vivo, po, 168 h, time 7 day
[16] = Hepatotoxicity in C57BL/6J mouse assessed as central necrosis at 200 mg/kg, po measured after 24 hrs by hematoxylin and eosin staining based immunohistochemical analysis; format: toxicity, organism-based; details: in vivo
[17] = Hepatotoxicity in C57BL/6J mouse assessed as steatosis in hepatic hilum at 200 mg/kg, po measured after 24 hrs by hematoxylin and eosin staining based immunohistochemical analysis; format: toxicity, organism-based; details: in vivo
Staphylococcus aureus [18] = assay: Antibacterial activity against methicillin-resistant Staphylococcus aureus ATCC2858 infected in C57BL/6J mouse assessed as log reduction in bacterial titres in blood at 2 mg/kg, ip measured after 24 hrs; format: functional
Staphylococcus aureus [19] = assay: Antibacterial activity against methicillin-resistant Staphylococcus aureus ATCC2858 infected in C57BL/6J mouse assessed as log reduction in bacterial titres in blood at 5 mg/kg, ip measured after 24 hrs; format: functional
Staphylococcus aureus [20] = assay: Antibiofilm activity against methicillin-resistant Staphylococcus aureus ATCC2858 assessed as biofilm eradication at 0.049 to 100 uM incubated for 24 hrs by crystal violet staining based assay; format: functional, organism-based; details: dose 0.049-100 µM

Row | SMILES | MIC (Staphylococcus aureus [1]) [µM] | MIC (Staphylococcus aureus [2]) [µM] | MIC (Escherichia coli) [µM] | MIC (Pseudomonas aeruginosa) [µM] | MIC (Candida albicans) [µM] | further results
1 | O=C(Nc1ccc(Sc2nc3ccccc3s2)cc1)N1CCOCC1 | 200 (≈ 74.3 µg/mL) | 200 (≈ 74.3 µg/mL) | > 200 | > 200 | > 200 | –
2 | CC(=O)NC[C@H]1CN(c2ccc(N3CCOCC3)c(F)c2)C(=O)O1 [LINEZOLID] | 3.12 (≈ 1.05 µg/mL) | 6.25 (≈ 2.11 µg/mL) | > 50 | > 50 | – | –
3 | O=C(Nc1ccc(Sc2nc3ccccc3s2)c(Cl)c1)N1CCOCC1 | > 200 | > 200 | > 200 | > 200 | > 200 | –
4 | CC1COc2c(N3CCN(C)CC3)c(F)cc3c(=O)c(C(=O)O)cn1c23 (stereo not drawn) [OFLOXACIN] | 0.78 (≈ 0.282 µg/mL) | 1.56 (≈ 0.564 µg/mL) | 0.39 (≈ 0.141 µg/mL) | 1.56 (≈ 0.564 µg/mL) | – | MBEC (Staphylococcus aureus [3]): 3 µM
5 | O=C(Nc1ccc(F)cc1)Nc1ccc(Sc2nc3ccccc3s2)c(Cl)c1 | 0.78 (≈ 0.335 µg/mL) | 1.56 (≈ 0.671 µg/mL) | > 200 | > 200 | > 200 | –
6 | O=C(Nc1ccc(F)c(F)c1)Nc1ccc(Sc2nc3cc(Cl)ccc3s2)c(Cl)c1 | 0.39 (≈ 0.188 µg/mL) | 0.78 (≈ 0.376 µg/mL) | > 200 | > 200 | > 200 | fold change (FC) (Staphylococcus aureus [4]): 64; MIC (Staphylococcus aureus [5]): 1.56 µM (≈ 0.752 µg/mL); MIC (Staphylococcus aureus [6]): 1.56 µM (≈ 0.752 µg/mL); MIC (Staphylococcus aureus [7]): 0.78 µM (≈ 0.376 µg/mL); Activity (HepG2 [8]): 50%; Activity (HepG2 [9]): >75%; Activity (Staphylococcus aureus [10]): Active; Activity (Staphylococcus aureus [11]): Dde; MBEC (Staphylococcus aureus [3]): 4 µM; Activity (Cell membrane): Active; fold change (FC) (Staphylococcus aureus [12]): 256; Activity [13]: Non-Toxic; Activity [14]: Non-Toxic; Activity [15]: Non-Toxic; Activity [16]: Non-Toxic; Activity [17]: Non-Toxic; log(activity) (Staphylococcus aureus [18]): 1.9; log(activity) (Staphylococcus aureus [19]): 2.4
7 | O=C(Nc1ccccc1C(F)(F)F)N1CCC(Sc2nc3ccccc3s2)CC1 | 3.12 (≈ 1.37 µg/mL) | 3.12 (≈ 1.37 µg/mL) | > 200 | > 200 | > 200 | –
8 | O=C(Nc1ccc(Sc2nc3ccccc3s2)cc1)Nc1ccc(C(F)(F)F)cc1 | 0.39 (≈ 0.174 µg/mL) | 0.39 (≈ 0.174 µg/mL) | > 200 | > 200 | > 200 | MIC (Staphylococcus aureus [5]): 0.78 µM (≈ 0.347 µg/mL); MIC (Staphylococcus aureus [6]): 0.78 µM (≈ 0.347 µg/mL); MIC (Staphylococcus aureus [7]): 0.39 µM (≈ 0.174 µg/mL); Activity (HepG2 [9]): >75%; Activity (Staphylococcus aureus [10]): Active; Activity (Staphylococcus aureus [20]): Active; MBEC (Staphylococcus aureus [3]): 5 µM
9 | CO[C@@]1(NC(=O)Cc2cccs2)C(=O)N2C(C(=O)O)=C(COC(N)=O)CS[C@@H]21 [CEFOXITIN] | 25 (≈ 10.7 µg/mL) | 100 (≈ 42.7 µg/mL) | 50 (≈ 21.4 µg/mL) | > 200 | – | –
10 | O=C(Nc1ccc(C(F)(F)F)cc1)Nc1ccc(Sc2nc3ccccc3s2)c(Cl)c1 | 0.39 (≈ 0.187 µg/mL) | 0.78 (≈ 0.374 µg/mL) | > 200 | > 200 | > 200 | MIC (Staphylococcus aureus [5]): 0.78 µM (≈ 0.374 µg/mL); MIC (Staphylococcus aureus [6]): 1.56 µM (≈ 0.749 µg/mL); MIC (Staphylococcus aureus [7]): 1.56 µM (≈ 0.749 µg/mL); Activity (HepG2 [8]): 20%; Activity (HepG2 [9]): >75%; Activity (Staphylococcus aureus [20]): Active; MBEC (Staphylococcus aureus [3]): 5 µM
11 | O=C(Nc1ccc(Sc2nc3ccccc3s2)cc1)Nc1ccc(F)c(F)c1 | 0.39 (≈ 0.161 µg/mL) | 0.78 (≈ 0.323 µg/mL) | > 200 | > 200 | > 200 | MIC (Staphylococcus aureus [5]): 1.56 µM (≈ 0.645 µg/mL); MIC (Staphylococcus aureus [6]): 3.12 µM (≈ 1.29 µg/mL); MIC (Staphylococcus aureus [7]): 1.56 µM (≈ 0.645 µg/mL)
12 | O=C(Nc1ccc(C(F)(F)F)cc1)Nc1ccc(Sc2nc3cc(Cl)ccc3s2)c(Cl)c1 | 0.39 (≈ 0.201 µg/mL) | 0.78 (≈ 0.401 µg/mL) | > 200 | > 200 | > 200 | –
13 | O=C(Nc1ccc(Br)cc1)Nc1ccc(Sc2nc3ccccc3s2)c(Cl)c1 | 0.78 (≈ 0.383 µg/mL) | 0.78 (≈ 0.383 µg/mL) | > 200 | > 200 | > 200 | –
14 | O=C(NCc1ccccc1Cl)Nc1ccc(Sc2nc3ccccc3s2)c(Cl)c1 | > 200 | > 200 | > 200 | > 200 | > 200 | –
15 | CN[C@H](CC(C)C)C(=O)N[C@H]1C(=O)N[C@@H](CC(N)=O)C(=O)N[C@H]2C(=O)N[C@H]3C(=O)N[C@H](C(=O)N[C@H](C(=O)O)c4cc(O)cc(O)c4-c4cc3ccc4O)[C@H](O)c3ccc(c(Cl)c3)Oc3cc2cc(c3O[C@@H]2O[C@H](CO)[C@@H](O)[C@H](O)[C@H]2O[C@H]2C[C@](C)(N)[C@H](O)[C@H](C)O2)Oc2ccc(cc2Cl)[C@H]1O [VANCOMYCIN] | – | 0.78 (≈ 1.13 µg/mL) | – | – | – | MIC (Staphylococcus aureus [5]): 0.78 µM (≈ 1.13 µg/mL); MIC (Staphylococcus aureus [6]): 1.56 µM (≈ 2.26 µg/mL); MIC (Staphylococcus aureus [7]): 1.56 µM (≈ 2.26 µg/mL); MBEC (Staphylococcus aureus [3]): 7 µM
16 | O=C(Nc1ccc(Sc2nc3ccccc3s2)c(Cl)c1)Nc1ccccc1C(F)(F)F | 3.12 (≈ 1.5 µg/mL) | 3.12 (≈ 1.5 µg/mL) | > 200 | > 200 | > 200 | –
17 | O=C(Nc1ccc(Sc2nc3ccccc3s2)c(Cl)c1)N1CCCC1 | > 200 | > 200 | > 200 | > 200 | > 200 | –
18 | CN1CCN(C(=O)Nc2ccc(Sc3nc4ccccc4s3)c(Cl)c2)CC1 | 100 (≈ 41.9 µg/mL) | 100 (≈ 41.9 µg/mL) | 200 (≈ 83.8 µg/mL) | 200 (≈ 83.8 µg/mL) | 200 (≈ 83.8 µg/mL) | –
19 | O=C(Nc1ccc(Sc2nc3ccccc3s2)c(Cl)c1)N1CCSC1 | > 200 | > 200 | > 200 | > 200 | > 200 | –
20 | O=C(Nc1ccc(Sc2nc3ccccc3s2)c(Cl)c1)Nc1ccc(Cl)cc1Cl | 0.78 (≈ 0.375 µg/mL) | 0.78 (≈ 0.375 µg/mL) | > 200 | > 200 | > 200 | –
